Assay results reported in publication PMC5471252, “Anti-leukemia activity of a Hsp70 inhibitor and its hybrid molecules” (Scientific Reports, 2017).

Tests used:
[1] = tested on: HL-60 cells; test: MTT assay, cell viability of HL-60 cells; assay type: cell-based; conditions: Homo sapiens, 48 h, mean ± s.d., n = 3, read-out: IC50 values of compounds for leukemia cells
[2] = tested on: KG-1 cells; test: MTT assay, cell viability of KG-1 cells; assay type: cell-based; conditions: Homo sapiens, 48 h, mean ± s.d., n = 3, read-out: IC50 values of compounds for leukemia cells
[3] = tested on: THP-1 cells; test: MTT assay, cell viability of THP-1 cells; assay type: cell-based; conditions: Homo sapiens, 48 h, mean ± s.d., n = 3, read-out: IC50 values of compounds for leukemia cells
[4] = tested on: U937 cells; test: MTT assay, cell viability of U937 cells; assay type: cell-based; conditions: Homo sapiens, U-937, 48 h, mean ± s.d., n = 3, read-out: IC50 values of compounds for leukemia cells
[5] = tested on: Jurkat cells; test: MTT assay, cell viability of Jurkat cells; assay type: cell-based; conditions: Homo sapiens, 48 h, mean ± s.d., n = 3, read-out: IC50 values of compounds for leukemia cells
[6] = tested on: K562 cells; test: MTT assay, cell viability of K562 cells; assay type: cell-based; conditions: Homo sapiens, 48 h, mean ± s.d., n = 3, read-out: IC50 values of compounds for leukemia cells
[7] = tested on: human leukemia cells (HL-60, KG-1, THP-1, U937, Jurkat and K562 cells); test: MTT assay, all tested leukemia cells (summary statements); conditions: all tested leukemia cells, MTT, compared with Az, GD and imatinib
Protocol: To assess anti-leukemia activity of Az, several human leukemia cells (HL-60 cells, acute myeloid leukemia; Jurkat cells, acute T-lymphocytic leukemia; KG-1 cells, acute myeloid leukemia; U937 cells, acute myeloid leukemia; THP-1 cells, acute monocytic leukemia; K562 cells, chronic myeloid leukemia) were incubated with Az for 48 h. […] An MTT assay was then performed to measure cell viabilities.
Cells were exposed to each compound (a HCl salt form) at various concentrations for indicated time periods (24 or 48 h) in culture media. MTT assays were conducted according to known procedures. The absorbance at 570 nm was determined by employing a microplate reader (TECAN, Infinite® 200 PRO).

[8] = tested on: HL-60 and K562 cells; test: Flow cytometry, fluorescein-annexin V and PI staining; assay type: cell-based, human; conditions: 24 h; 10 µM Az, 10 µM GD or 4 µM Az-O3-GD
Protocol: (§1) To determine whether Az promotes leukemia cell death via apoptosis, acute leukemia HL-60 and chronic leukemia K562 cells were independently incubated with Az. The treated cells were then exposed to a mixed solution of fluorescein-annexin V and propidium iodide (PI) and flow cytometry analysis was conducted. […] The size of the treated cells was also assessed by using flow cytometry. […] We also investigated if the mitochondrial membrane potential in cells treated with Az is disrupted. To test this possibility, HL-60 and K562 cells were exposed to Az and subsequently stained with a membrane potential sensitive JC-1 probe. […] This serves as another evidence for apoptosis induced by Az.
HL-60 and K562 cells were incubated with each compound for 24 h in culture media. Cells were re-suspended with 500 μL binding buffer (10 mM HEPES, […] and 2.5 mM CaCl2, pH 7.5) and then incubated with the FITC-annexin V apoptosis detection kit with PI according to the protocol provided by the manufacturer. Flow cytometry was carried out by using a BD FACSVerse™ instrument (BD Biosciences) and the data were analyzed by using a FlowJo™ software (BD Biosciences).

[9] = tested on: HL-60 and K562 cells; test: Flow cytometry, JC-1 mitochondrial membrane potential; assay type: cell-based, human; conditions: 24 h; 10 µM Az or 4 µM Az-O3-GD
Protocol: as §1
JC-1 staining: HL-60 and K562 cells were treated with each compound and then with 2.5 μg/mL JC-1 (Anaspec) in PBS for 15 min. Flow cytometry was conducted with a BD FACSVerse™ instrument (the red fluorescence signal: λex = 550 nm, λem = 600 nm; the green fluorescence signal: λex = 485 nm, λem = 535 nm) and the data were analyzed using a FlowJo™ software.

[10] = tested on: caspase activity of HL-60 and K562 cells; test: Caspase activity assay with Ac-DEVD-pNA in cell lysates; assay type: cell-based, human; conditions: lysates of cells treated 24 h
Protocol: Because Az inhibits the association of Hsp70 with Apaf-1, caspase associated proteolytic activities should increase in cells treated with Az. To determine whether this event occurs, caspase activities of HL-60 and K562 cells treated with Az were measured by using the colorimetric substrate, Ac-DEVD-pNA (pNA, p-nitroaniline). […] We also examined whether leukemia cells are protected from the effect of Az by ZVAD-FMK (benzyloxycarbonyl-Val-Ala-Asp(OMe) fluoromethyl ketone, a cell-permeable inhibitor of pan-caspases). HL-60 and K562 cells were pre-incubated with ZVAD-FMK for 3 h and subsequently exposed to Az.
HL-60 and K562 cells treated with each compound for 24 h were lysed in a buffer containing 50 mM HEPES (pH 7.4), 5 mM CHAPS and 5 mM DTT. Assay buffer containing 20 mM HEPES (pH 7.4), 0.01% CHAPS, 5 mM DTT and 2 mM EDTA was added to cell lysates. Caspase activity was measured in the absence or presence of acetyl-DEVD-pNA (200 μM) (Sigma-Aldrich) by using a microplate reader (monitored at 405 nm).

[11] = tested on: AIF translocation in HL-60 and K562 cells; test: AIF translocation to the nucleus (western blot, immunocytochemistry); assay type: cell-based, human; conditions: 24 h; 2 μM for Az-O3-GD
Excerpt: Apoptosis-inducing factor (AIF) is known to be translocated from the cytosol to the nucleus during caspase-independent apoptosis (Supplementary Fig. S8b)[39]. In addition, it is also known that Hsp70 interacts with AIF directly and this interacting event results in blocking translocation of AIF to the nucleus and, in turn, prevents caspase-independent apoptosis. Because of these phenomena, we tested if Az has an influence on AIF-mediated caspase-independent apoptosis. To probe this issue, HL-60 and K562 cells were exposed to Az and the levels of AIF in the cytosolic and nuclear fractions were then determined. AIF translocation to the nucleus was not observed in Az-treated cells, based on western blot analysis (Fig. 4d). Additional evidence to support this conclusion was obtained from immunocytochemical analysis of leukemia cells treated with Az (Fig. 4d).
(§2) Western blot analysis. […] peroxidase-conjugated goat anti-rabbit IgG (1:2000, Santa Cruz Bio Technology) and goat anti-mouse IgG (1:2000, Santa Cruz Bio Technology) were used as the secondary antibodies. The blots were developed by using a West-ZOL® plus Western Blot Detection System (Intron Biotechnology Inc., South Korea). Western blot signals were analyzed by using a G:BOX Chemi Fluorescent & Chemiluminescent Imaging System.
Immunocytochemistry. […] Cell images were analyzed using the ZEN 2011 software.

[12] = tested on: Hsp70 level in HL-60 and K562 cells; test: Western blot of Hsp70 and Hsp90 levels; assay type: cell-based, human; conditions: cells treated 24 h
Protocol: Because Az-O3-GD promotes caspase activation in leukemia cells, it was anticipated that procaspase-9, procaspase-3 and PARP would be cleaved in treated cells. To test this possibility, HL-60 and K562 cells were exposed to Az-O3-GD, along with Az and GD as controls and western blot analysis was then carried out. […] Although Az-O3-GD upregulates Hsp70, the presence of the Hsp70 inhibitor in this hybrid causes its cytotoxicity against leukemia cells to be higher than that of GD. Finally, we examined the effect of Az-O3-GD on AIF-mediated caspase-independent apoptosis. To this end, HL-60 and K562 cells were incubated with Az-O3-GD for 24 h.
as §2

Which results are given for `COc1ccc(-c2nc(-c3cc(C(F)(F)F)cc(C(F)(F)F)c3)n(Cc3ccc(C(=O)NCCCOCCOCCOCCCNC4=C5CC(C)CC(OC)C(O)C(C)C=C(C)C(OC(N)=O)C(OC)C=CC=C(C)C(=O)NC(=CC4=O)C5=O)cc3)c2-c2ccc(OC)cc2)cc1` (stereo not drawn) [Az-O3-GD]?
IC50 [1]: 0.74 ± 0.27 µM; IC50 [2]: 1.31 ± 0.3 µM; IC50 [3]: 0.62 ± 0.27 µM; IC50 [4]: 1.12 ± 0.44 µM; IC50 [5]: 0.57 ± 0.18 µM; IC50 [6]: 0.72 ± 0.26 µM; cytotoxicity relative to the individual inhibitors [7]: greatly enhanced cytotoxicities; apoptosis, annexin V binding and PI uptake [8]: induces apoptosis; mitochondrial membrane potential, JC-1 red fluorescence [9]: significant decrease in the intensity of red fluorescence from JC-1; caspase activity of treated cells [10]: increase; AIF translocation to the nucleus [11]: does not elicit the translocation of AIF to the nucleus; translational level of Hsp70 [12]: upregulation of Hsp70
